Data from US20250332143A1, “COMPOSITION COMPRISING ALOX5 INHIBITOR FOR PREVENTING OR TREATING SARCOPENIA” (PLUTO Inc., priority 2022, published 2025).

Experiments:
human myotubes = test: Dexamethasone-induced atrophy of human skeletal myotubes, H&E, diameter; assay type: cell-based; settings: dexamethasone co-treatment
Experimental: Human-derived myoblasts were purchased from Thermo-Fisher Scientific (USA). Myoblasts were thawed using a water bath, centrifuged at 180 g for 5 min at room temperature, and washed with 20 mL DM. Myoblasts were then resuspended in DM and seeded in a 12-well plate at a density of 4.8×10^4 cells/well. After 48 hours, myoblasts were treated with compounds of interest for 24 hours. Myotubes were stained with H&E. After light microscopy analysis of DIC captured images (Olympus CKX41), myotubes were measured using ImageJ 1.48 software (National Institutes of Health, USA).

[1] = test system: Dex-treated C2C12 myotubes; test: SUNSET assay of protein synthesis in Dex-treated myotubes; assay type: cell-based, mouse
Experimental: C2C12 murine skeletal muscle myoblasts were obtained from Koram Biotech (Republic of Korea). The cells were maintained in DMEM growth medium supplemented with 10% FBS, 1% penicillin, and streptomycin. When myoblasts proliferated to approximately 90%, they were differentiated into muscle fibers by treating them with DMEM differentiation medium supplemented with 2% HS, 1% penicillin, and streptomycin for 96 hours. Differentiated muscle fibers were treated with 10 μM Dex for 24 hours to induce sarcopenia. To evaluate the degree of differentiation of muscle cells, differentiating myoblasts were treated with the corresponding compound in differentiation medium for 24 or 48 hours. The concentration of intracellular protein was measured using the Bradford assay (Bio-Rad, USA, CA), and electrophoresis was performed by loading on 10% and 12% polyacrylamide gels. Afterwards, the separated proteins were transferred to a PVDF membrane, and the primary antibody used was diluted 1:1000 in TBS-T containing 5% skim milk and incubated overnight at 4° C. Secondary antibodies were diluted 1:2000 and incubated for 35 minutes at room temperature (RT). Band intensity was measured using ImageJ 1.52 software (National Institutes of Health, USA), and intracellular protein was normalized to α-tubulin.

[2] = test system: differentiating C2C12 myoblasts; test: Myogenesis of mouse myotubes differentiated in presence of compound; assay type: cell-based
Experimental: C2C12 murine skeletal muscle myoblasts were obtained from Koram Biotech (Republic of Korea). The cells were maintained in DMEM growth medium supplemented with 10% FBS, 1% penicillin, and streptomycin. When myoblasts proliferated to approximately 90%, they were differentiated into muscle fibers by treating them with DMEM differentiation medium supplemented with 2% HS, 1% penicillin, and streptomycin for 96 hours. Differentiated muscle fibers were treated with 10 μM Dex for 24 hours to induce sarcopenia. To evaluate the degree of differentiation of muscle cells, differentiating myoblasts were treated with the corresponding compound in differentiation medium for 24 or 48 hours.
The concentration of intracellular protein was measured using the Bradford assay (Bio-Rad, USA, CA), and electrophoresis was performed by loading on 10% and 12% polyacrylamide gels. Afterwards, the separated proteins were transferred to a PVDF membrane, and the primary antibody used was diluted 1:1000 in TBS-T containing 5% skim milk and incubated overnight at 4° C. Secondary antibodies were diluted 1:2000 and incubated for 35 minutes at room temperature (RT). Band intensity was measured using ImageJ 1.52 software (National Institutes of Health, USA), and intracellular protein was normalized to α-tubulin.
For quantitative real-time PCR, transcript levels of genes of interest were analyzed using the StepOnePlus real-time PCR system (Applied Biosystems, UK). Total RNA was reverse transcribed to prepare cDNA using AccuPower® RT PreMix (Bioneer Corporation). […] Denaturation was performed at 95° C. for 15 s, annealing was performed at 60° C. for 1 min, and extension was performed at 72° C. for 20 s with fluorescence detection at 72° C. after each cycle. After the final cycle, melting point analysis of all samples was performed within the range of 60 to 95° C. using continuous fluorescence detection. […] Results were expressed as relative expression levels for each gene. The synthesized cDNA was amplified by quantitative real-time PCR (qRT-PCR) or standard PCR.

Alox5 = biological target: T1, Alox5 (Homo sapiens, UniProt P09917); settings: cited from earlier work
T1 sequence (P09917 1-674): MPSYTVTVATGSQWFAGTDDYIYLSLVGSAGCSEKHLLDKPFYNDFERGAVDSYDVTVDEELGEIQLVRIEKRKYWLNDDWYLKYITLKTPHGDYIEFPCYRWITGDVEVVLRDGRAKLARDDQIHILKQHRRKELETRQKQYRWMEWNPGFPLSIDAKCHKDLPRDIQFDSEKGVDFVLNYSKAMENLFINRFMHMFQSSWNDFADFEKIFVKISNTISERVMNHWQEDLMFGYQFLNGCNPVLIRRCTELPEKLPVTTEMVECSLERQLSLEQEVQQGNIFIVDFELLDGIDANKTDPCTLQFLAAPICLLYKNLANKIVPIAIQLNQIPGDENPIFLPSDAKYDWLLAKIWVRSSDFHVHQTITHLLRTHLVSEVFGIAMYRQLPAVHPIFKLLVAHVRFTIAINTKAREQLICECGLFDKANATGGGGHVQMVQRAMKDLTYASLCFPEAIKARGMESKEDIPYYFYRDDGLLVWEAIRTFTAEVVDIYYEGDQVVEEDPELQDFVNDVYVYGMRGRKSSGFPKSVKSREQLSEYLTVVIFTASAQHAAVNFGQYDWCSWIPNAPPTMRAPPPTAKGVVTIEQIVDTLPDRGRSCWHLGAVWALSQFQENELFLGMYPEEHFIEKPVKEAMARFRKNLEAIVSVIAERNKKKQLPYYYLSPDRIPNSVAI

With CC(C)OC(=O)C(C(=O)OC(C)C)=C1SC=CS1 [malotilate, Malotilate] the “atrophy of human myotubes” value (human myotubes; 24 hours) was “can prevent atrophy”, the mean myotube diameter (human myotubes; human myotubes) was “increased” and the “proportion of myotubes of larger size” value (human myotubes; human myotubes) was “greater proportion”. For the same compound, the total protein synthesis [1] was “restored”, the “expression of master gene regulators of the myogenic program (Pax7, Myf5, MyoG, Myh2)” value ([2]; after 24 h of treatment, qPCR) was “no significant changes” and the “phosphorylation level of Akt” value ([2]; differentiated myotubes) was “not significantly altered”. The “expression of differentiation marker Myh2” value ([2]; during myogenesis, Western blot) was “not affected” and the Alox5 inhibition selectivity (Alox5) was “selective inhibitor of Alox5”.
